One compound from EP2924040A1, “2-Amino-1-(o-tolyl)pyrrolo[3,2-b]quinoxaline-3-carboxamide derivates” (Universität Zürich, priority 2014, dated 2015) can be followed below.

Structures are written as SMILES.

A word on the GI50: it is the concentration at which growth is held to half of that of the control. Read a high GI50 as lower sensitivity of the cells. As a reminder, the Cmax is the highest concentration seen after dosing. What is called Tmax is the time from dosing to the highest level.

Data set [1] deals with protein kinases. Put plainly: Selectivity profile with respect to protein kinases. The data set is classed as binding. To be noted: kinase groups TK, TKL, STE, CK1, AGC, CAMK, CMGC, other (Fig. 1). The source says:
A selectivity profile of compound 2 with respect to protein kinases is depicted in Figure 1. The protein kinases are selected from tyrosine kinases (TK), tyrosine kinase-like kinases (TKL), STE-Group, Cell Kinases 1 (CK1), AGC-Group, Calmodulin/Calcium regulated kinases (CAMK), CMGC Group and other kinases. The larger the respective dot, the higher the binding affinity of the compound to the respective protein kinases. […] As per Kawasaki Y. and Freire E. in Drug Discovery Today, 2011 November; 16(21-22): 985-990, "[e]xtremely high affinity and selectivity are two of the most sought-after properties of drug molecules."

In data set [2] the test system is HT-29. Put plainly: Cell culture and GI50 determination (resazurin). The data set is classed as cell-based. As to conditions: Homo sapiens; HT-29, resazurin. The protocol: MDA-MB-231, HT-29, KM12, HOP-92 and A498 cells were plated at 10,000 cells per well (100 µL per well) in 96-well culture dishes and allowed to incubate for 24 h. The old media was removed, the cells were washed with PBS (phosphate-buffered saline) and fresh media was added. A 5 mmol/L solution of inhibitor (in 100% DMSO) was serially diluted in the culture media (12 different concentrations were used) and allowed to incubate for 72 h (MDA-MB-231) or 48h (A498). Control cells were treated with the same DMSO concentrations. After the incubation period the media was once more removed and the cells were washed with PBS to then be incubated with fresh media containing 86 nmol/L resazurin. After 3 hours, the fluorescence was quantified using a fluorescence microplate reader (Biotek, FLx800™) at the respective excitation and emission wavelength of 560 and 590 nm. Resazurin becomes fluorescent under mitochondrial reduction and its emission directly correlates with the metabolic stability of the cells. The measured fluorescence values were corrected from the control samples containing DMSO and GI50 values were determined by plotting the fraction of metabolically active cells against the log of the drug concentration. All measurements were performed at least in triplicate.
Background: Resazurin is reduced to fluorescent resorufin, in cell work by metabolically active cells.

Data set [3] is described as follows: In vivo pharmacokinetics in blood plasma. To be noted: male CD-1 mice. The protocol: Evaluation of the in vivo pharmacokinetics of a subset of compounds was performed through analysis of compound concentration in the blood plasma of male CD-1 (ICD) mice (each weighing 20-30 g) over a 24 hour period (at time points of 3, 10, 30, 60, 120, 240, 360 and 1440 minutes) following a single oral (PO) and intravenous (IV, in tail vein) administration of a compound dose corresponding to 5 mg of compound/kg of mouse body weight (PO) and 1 mg of compound/kg of mouse body weight (IV). For IV dosing, each compound was formulated as a clear solution in DMSO/Solutol® HS 15/phosphate-buffered saline, pH 7.4 (PBS) (5/5/90, v/v/v). For PO dosing, compounds were formulated as a homogeneous suspension in DMSO/1% methylcellulose (5/95, v/v).
At the relevant time point, blood samples (300-400 µL) were collected from the mice under general inhalant anaesthesia by cardiac puncture and stored on ice in 0.6 mL polypropylene heparin-lithium-coated tubes. Within 1 hour of collection, each tube was centrifuged at 2500 G for 15 minutes at 4°C and harvested plasma stored at -20°C.
Compound concentration in plasma at each time point was determined following acetonitrile precipitation of each sample followed by HPLC-MS analysis performed in triplicates, i.e., based on the mean of the compound concentration at that time point in blood samples of three mice.
Table 3: In vivo pharmacokinetics (min: minutes)

The test system of data set [4] is Renal A498. Put plainly: NCI DTP Human Tumor Cell Line Screen (SRB). Type of data set: cell-based. To be noted: Renal A498, 48 h. How it is done: (§1) Compound 2 was further screened against cancer cell lines by the National Cancer Institute (NCI). This screen was performed as per the description provided at http://dtp.nci.nih.gov/branches/btb/ivclsp.html. "The NCI 60 panel cell lines were grown in RPMI 1640 medium supplemented with 5% (v/v) fetal bovine serum and 2 mM L-glutamine at 37° C, 5 % CO2, 95 % air and 100 % relative humidity. Cells were seeded at 5,000 - 40,000 cells/well depending on their doubling time. After 24 hours of incubation, DMSO stock solutions of the compounds (400X) were added at 5 different concentrations (in […] serial dilutions). After 48 h cells were fixed with trichloroacetic acid (10% or 16% final concentration for adherent cells and suspension cells respectively) and incubated for 60 minutes at 4°C. After discarding the supernatant, plates were washed with water (5x) and air dried. Sulforhodamine B (SRB) solution (100 µl) at 0.4 % (w/v) in 1% acetic acid was added to each well and incubated for 10 minutes at 4°C, followed by washing with 1% acetic acid (5x) and air drying. The bound stain was solubilized with 10mM trizma base and determined by absorbance measurement on an automated plate reader at a wavelength of 515 nm. The percentage growth inhibition was calculated as followed, being Tz time zero measurements, C control growth measurements and Ti test growth experiments in the present of the drug. [(Ti-Tz)/(C-Tz)] x 100 for concentrations for which Ti>/=Tz [(Ti-Tz)/Tz] x 100 for concentrations for which Ti<Tz.
(§2) Three dose response parameters were calculated for each cell line. Growth inhibition of 50% (GI50) is calculated from [(Ti-Tz)/(C-Tz)] x 100 = 50 and corresponds to the drug concentration required in order to reduce by 50% the net protein increase in comparison to the control experiments. Total growth inhibition (TGI) is calculated from Ti = Tz. The LC50 indicates the drug concentration needed to reduce by 50% the measured protein at the end of the drug treatment as compared to that of the beginning and is derived from [(Ti-Tz)/Tz] x 100 = -50." Table 2: GI50 in a selection of cancer cell lines of the National Cancer Institute for compound 2

Data set [5] concerns Leukemia K562. Description: NCI DTP Human Tumor Cell Line Screen (SRB). Type of data set: cell-based. As to conditions: Leukemia K562, 48 h. How it is done: as §1, §2
The test system of data set [6] is Renal RXF393. Description: NCI DTP Human Tumor Cell Line Screen (SRB). The data set is classed as cell-based. As to conditions: RXF 393, Renal RXF393, 48 h. The protocol: as §1, §2
For data set [7], the system named is CNS SNB75. Put plainly: NCI DTP Human Tumor Cell Line Screen (SRB). As to conditions: SNB-75, CNS SNB75, 48 h. The data set is classed as cell-based. The protocol:
as §1, §2

Data set [8] relates to Colon HT29. Description: NCI DTP Human Tumor Cell Line Screen (SRB). To be noted: HT-29, Colon HT29, 48 h. The data set is classed as cell-based. How it is done:
as §1, §2

Data set [9] deals with Breast MDA-MB-231. Put plainly: NCI DTP Human Tumor Cell Line Screen (SRB). The data set is classed as cell-based. To be noted: Breast MDA-MB-231, 48 h. The protocol:
as §1, §2

In data set [10] the test system is Breast HS578T. Put plainly: NCI DTP Human Tumor Cell Line Screen (SRB). Type of data set: cell-based. To be noted: Hs-578T, 48 h. How it is done: as §1, §2
The test system of data set [11] is NSCLC HOP92. Description: NCI DTP Human Tumor Cell Line Screen (SRB). As to conditions: HOP-92, NSCLC HOP92, 48 h. The data set is classed as cell-based. The protocol:
as §1, §2

Turning to `Cc1ccc(O)cc1-n1c(N)c(C(N)=O)c2nc3ccccc3nc21` [Compound 2, 2-Amino-1-(5-hydroxy-2-methylphenyl)-1H-pyrrolo[2,3-b]quinoxaline-3-carboxamide], the “selectivity profile (binding affinity) with respect to protein kinases” value in [1] was “selectivity towards tyrosine kinases (TK)”. In addition, the GI50 turned out to be 4.59 µM in data set [2]; 162 nM in data set [4]; 229 nM in data set [5]; 361 nM in [6]; 28 nM in [7]; 244 nM in data set [8]. Also, the values for the GI50 in data set [9], in data set [10] and in data set [11] were 317 nM, 100 nM and 152 nM, respectively. Besides, in [3] (IV 1 mg/kg, plasma), the “T1/2 (min, IV)” value amounted to 101 min. The “Bioavailibility (%)” value in data set [3] ([AUClast(PO)*Dose(IV)] / [AUClast(IV)*Dose(PO)]) amounted to 25%. The compound further yielded a Cmax in data set [3] (mouse, PO 5 mg/kg, plasma) of 240 ng/mL. In addition, the half-life in [3] (mouse, PO 5 mg/kg, plasma, read-out: T1/2 (min, PO)) turned out to be 100 min. In addition, in [3] (mouse, PO 5 mg/kg, plasma, read-out: Tmax (min, PO) (converted)), the Tmax was 30 min.
